Measurements: PubChem BioAssay (NCI)
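All cell lines were grown in 96-well plates and treated with compound for 48 hours. At the TGI there is no net growth.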

Legend:
Assay in all cases: NCI anticancer screen, dose series, 48 h
A549 NSCLC = tested on: A549 NSCLC
EKVX NSCLC = tested on: EKVX NSCLC
ACHN renal = tested on: ACHN renal
KM12 colon = tested on: KM12 colon
SF-268 CNS = tested on: SF-268 CNS
SK-MEL-2 melanoma = tested on: SK-MEL-2 melanoma
PC-3 prostate = tested on: PC-3 prostate
OVCAR-4 ovarian = tested on: OVCAR-4 ovarian
SK-MEL-5 melanoma = tested on: SK-MEL-5 melanoma
BT-549 breast = tested on: BT-549 breast
SNB-19 CNS = tested on: SNB-19 CNS
MDA-MB-231 breast = tested on: MDA-MB-231 breast
NCI/ADR-RES ovarian = tested on: NCI/ADR-RES ovarian
SN12C renal = tested on: SN12C renal
RPMI-8226 leukemia = tested on: RPMI-8226 leukemia
HOP-62 NSCLC = tested on: HOP-62 NSCLC
K-562 leukemia = tested on: K-562 leukemia
HL-60(TB) leukemia = tested on: HL-60(TB) leukemia
HOP-92 NSCLC = tested on: HOP-92 NSCLC
HT29 colon = tested on: HT29 colon

SMILES | TGI (A549 NSCLC) [µM] | TGI (EKVX NSCLC) [µM] | TGI (ACHN renal) [µM] | TGI (KM12 colon) [µM] | TGI (SF-268 CNS) [µM] | TGI (SK-MEL-2 melanoma) [µM] | TGI (PC-3 prostate) [µM] | TGI (OVCAR-4 ovarian) [µM] | TGI (SK-MEL-5 melanoma) [µM] | TGI (BT-549 breast) [µM] | TGI (SNB-19 CNS) [µM] | TGI (MDA-MB-231 breast) [µM] | TGI (NCI/ADR-RES ovarian) [µM] | TGI (SN12C renal) [µM] | TGI (RPMI-8226 leukemia) [µM] | TGI (HOP-62 NSCLC) [µM] | TGI (K-562 leukemia) [µM] | TGI (HL-60(TB) leukemia) [µM] | TGI (HOP-92 NSCLC) [µM] | TGI (HT29 colon) [µM]
CC(C)=C[C@H]1CCC2(OCCO2)[C@]1(C)CO | > 100 | > 100 | > 100 | > 100 | > 100 | > 100 | > 100 | > 100 | > 100 | > 100 | > 100 | > 100 | > 100 | > 100 | > 100 |  |  |  |  | 
CCN(CC)C1CC(O[C@H]2C[C@](O)(C(=O)CO)Cc3c(O)c4c(c(O)c32)C(=O)c2c(OC)cccc2C4=O)OC(C)C1O (stereo partly specified) | 0.394 | 0.336 | 0.208 | 0.457 | 0.314 | 0.193 |  | 0.255 | 0.124 |  | 0.754 |  |  | 1.25 | 0.31 | 0.455 | 0.947 | 0.533 | 0.268 | 1.64
N#Cc1[nH]c(=O)n(-c2ccccc2)c1N | > 10 | > 10 | > 10 | > 10 | > 10 | > 10 | > 10 | > 10 | > 10 |  | > 10 | > 10 | > 10 | > 10 | > 10 | > 10 | > 10 | > 10 |  | > 10
CC(C)=CCC(O)[C@](C)(O)[C@H]1[C@H](O)C[C@@]2(C)[C@@H]3CCc4cc(O)c(OC5OC(CO)C(O)C(O)C5O)cc4C3(C)C(=O)C[C@]12C (stereo partly specified) | > 100 | > 100 | > 100 | > 100 | > 100 | > 100 | > 100 | > 100 | > 100 | > 100 | > 100 | > 100 | > 100 | > 100 |  | > 100 | > 100 |  | > 100 | > 100
O=[N+]([O-])c1ccc(S(=O)(=O)n2c3ccc(Br)cc3c3nc4ccccc4nc32)cc1 | > 100 |  | > 100 | > 100 | > 100 | > 100 | > 100 | > 100 | > 100 |  | > 100 | > 100 | > 100 | > 100 | > 100 | > 100 | > 100 |  | > 100 | > 100
O=C(/C=C/c1ccc2ccccc2c1)NCc1ccc(C(=O)NCCc2ccccc2)cc1 | > 100 |  | > 100 | > 100 | > 100 | > 100 | > 100 | > 100 | > 100 |  | > 100 | > 100 | > 100 | > 100 | > 100 | > 100 | > 100 | > 100 | > 100 | 
CC(=O)OC1C(Oc2c(C)cc3c(c2O)[C@@H](C)CC[C@@H]3[C@@H](C)CCC=C(C)C)OCC(O)C1O (stereo partly specified) | 30.2 |  | 35.5 | 31.2 | 33.1 | 45.2 | 39.6 |  | 32.1 |  | 35.1 | 38.7 | 40.6 | 32.2 |  | 32.2 | 39.5 | 41.7 |  | 27.6
CCCCC1Cc2ccccc2-c2nc3ccccc3n21 (stereo unspecified) |  | 50 | 31 | 38.5 | 33 | 30.7 | 22.1 | 29.8 | 31.1 |  |  | 31.7 | 33.5 |  | 32.5 | 36.5 | 31.7 | 0.231 | 30.8 | 29.6
CC(C)=C[C@H]1CCC2(OCCO2)[C@]1(C)COCc1ccccc1 | > 100 | > 100 | > 100 | > 100 | > 100 | 85.9 | > 100 | > 100 | 32 | > 100 | > 100 | 53.7 | > 100 | 68.5 | 41.9 |  |  |  |  | 
O=C(CC(=O)n1nc(-c2ccccc2)c(N=Nc2ccc(Cl)cc2)c1-c1ccccc1)Nc1ccc(Cl)cc1 | > 60.6 | > 100 | > 100 | > 100 | > 100 | > 100 |  | > 100 | > 100 |  | > 100 |  |  | > 100 | > 64.6 | > 100 | > 66.2 | > 100 | > 100 | > 59.7
N#C[C@@H](c1ccccn1)c1ncccc1[N+](=O)[O-] | > 100 | > 100 | > 100 |  | > 100 | > 100 | > 100 | > 100 | > 100 | > 100 | > 100 | > 100 | > 100 | > 100 | > 100 | > 100 | > 100 |  |  | > 100
COC1=C(OC)C(=O)C(Cc2c(C)nc3sccn23)=C(C)C1=O | 40.3 | 29 | 30.1 | 33.9 | 37.3 | 41.5 | 51.6 | 18.1 | 17.6 | 31 | 33.3 | 32.9 | 31.1 | 31 | 24.7 | 34.8 | 39.8 |  |  | 32.2
O=C1c2ccccc2C(=O)N1CCCCNOCCCN1C(=O)c2ccccc2C1=O | > 100 | > 100 | > 100 | > 100 | > 100 |  | > 100 | > 100 | > 100 | > 100 | > 100 | > 100 | > 100 | > 100 | > 100 | > 100 | > 100 |  | > 100 | > 100
